The record followed here is US20210238225A1, “PEPTIDOMIMETIC INHIBITORS OF THE PEPTIDYL-PROLYL CIS/TRANS ISOMERASE (PIN1)” (DANA-FARBER CANCER INSTITUTE, INC., priority 2018, published 2021).

As usually defined, the Ki is the dissociation constant of the complex between target and ligand, obtained from inhibition or displacement.

One assay addresses Pin1 Cys 113 (Homo sapiens, UniProt Q13526). As to the kind of experiment: Covalent labeling (intact MS). Type of assay: binding. Conditions: for Covalent? (In tact MS), % labeling: purified Pin1 with 5 μM inhibitor, 0-3 hr. Here is the method:
5 μg of purified Pin1 protein in 50 μL of 20 mM HEPES pH 7.5 and 75 mM NaCl was incubated with 5 μM of respective Pin1 inhibitors for 0-3 hr. A Shimadzu XR HPLC was used to inject the entire sample onto a self-packed reverse-phase column (1/32 in outer diameter×500 μm inner diameter, 5 cm of POROS 50R2 resin). After desalting, protein was eluted with an HPLC gradient (0%-100% B in 4 min, A=0.2 M acetic acid in water, B=0.2 M acetic acid in acetonitrile, flow rate=10 μl/min) into a LTQ XL mass spectrometer (Thermo Fisher Scientific, San Jose, Calif., USA). LTQ XL MS spectra were acquired in centroid mode using the electron multipliers for ion detection. Mass spectra were deconvoluted using MagTran1.03b2 software (Zhang and Marshall, J. Am. Soc. Mass Spectrom. 9:225-233 (1998)).

Assay [1] has as its target T1, Pin1 (Homo sapiens, UniProt Q13526). As to the kind of experiment: X-ray crystallography. Set-up: A construct of full-length human Pin1 in a pET28 vector; made in house; host or cells: E. coli BL21 (DE3). The procedure: A construct of full-length human Pin1 in a pET28 vector was overexpressed in E. coli BL21 (DE3) in LB medium in the presence of […] of kanamycin. Cells were grown at 37° C. to an OD of 0.8, cooled to 17° C., induced with 500 μM isopropyl-1-thio-D-galactopyranoside, incubated overnight at 17° C., collected by centrifugation, and stored at −80° C. Cell pellets were sonicated in buffer A (50 mM hepes 7.5, 300 mM NaCl, 10% glycerol, 10 mM Imidazole, and 3 mM 2-mercaptoethanol (BME) and the resulting lysate was centrifuged at 30,000×g for 40 min. Ni-NTA beads (Qiagen) were mixed with lysate supernatant for 30 min and washed with buffer A. Beads were transferred to an FPLC-compatible column and the bound protein was washed with 15% buffer B (50 mM hepes 7.5, 300 mM NaCl, 10% glycerol, 300 mM imidazole, and 3 mM BME) and eluted with 100% buffer B. Thrombin was added to the eluted protein and incubated at 4° C. overnight. The sample was concentrated and passed through a Superdex® 200 10/300 column (GE healthcare) in a buffer containing 20 mM hepes 7.5, 150 mMNaCl, 5% glycerol, 3 mM DTT, and 1 mM tris(2-carboxyethyl)phosphine (TCEP). Fractions were pooled, concentrated to approximately 37 mg/ml and frozen at −80° C.
Apo protein at a final concentration of 1 mM was crystallized by sitting-drop (200 nL+200 nL) vapor diffusion at 20° C. in the following crystallization buffer: 3 M (NH4)2SO4, 100 mM BisTris-pH 7.0, 1% PEG400, and 1 mM DTT. A volume of 200 nL of 1 mM compound 2b-6 was added directly to crystals for soaking at 20° C. for 16 hrs. Crystals were transferred briefly into crystallization buffer containing 25% glycerol prior to flash-freezing in liquid nitrogen.
Diffraction data from complex crystals were collected at beamline 24ID-E of the NE-CAT at the Advanced Photon Source (Argonne National Laboratory). Data sets were integrated and scaled using XDS (Kabsch, Acta Crystallogr. D Biol. Crystallogr. D66: 133-144 (2010)). […]

For assay [2], the target named is T1, Pin1. Nature of the assay: Lysate target engagement (pull down with biotinylated probes; competition assay). The assay is classed as binding. More on the design: endogenous in cells; host or cells: MDA-MB-231. Conditions: for Lysate Target Engagement?: TNBC-MDA-MB-231 lysate, biotin/dtb probes: pull down, others: competition, concentration under E5. In a few lines:
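MDA-MB-231 (TNBC) lysates, 500 μg protein, incubated 1 h at 4 °C with compound, then streptavidin pull-down 2 h at 4 °C; western blot read-out. Competition format: lysate pre-incubated overnight at 4 °C with competitor, then 1 μM desthiobiotin probe for 1 h before pull-down.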

In assay [3] the target is T2, Pin1 (GST-Pin1) (Homo sapiens, UniProt Q13526). As to the kind of experiment: Chymotrypsin-coupled PPIase assay, inhibition of isomerase activity. The assay is classed as biochemical. The settings on record: 12 hours pre-incubation at 4° C.; Cheng-Prusoff equation; read-out: Ki, μM (PPlase Assay). The procedure: Inhibition of Pin1 isomerase activity was determined using the chymotrypsin-coupled PPIase assay, using GST-Pin1 and Suc-Ala-pSer-Pro-Phe-pNA peptide substrate ([…]), as described previously (Yaffe et al., Science 275:1957-1960 (1997)). GST-Pin1 was pre-incubated with the indicated concentrations of compound for 12 hours at 4° C. in buffer containing 35 mM HEPES (pH 7.8), 0.2 mM DTT, and 0.1 mg/mL bovine serum albumin (BSA). Immediately before the assay was started, chymotrypsin (final concentration 6 mg/mL), followed by the peptide substrate (Suc-Ala-pSer-Pro-Phe-pNA peptide substrate, final concentration […]) was added. The Ki value obtained from the PPIase assay was derived from the Cheng-Prusoff equation, Ki=IC50/(1+S/Km), where Km is the Michaelis constant for the used substrate, S is the initial concentration of the substrate in the assay, and IC50 is the […] inhibitory concentration of the inhibitor.

For assay [4], the target named is T2, Pin1 (GST-Pin1). Nature of the assay: Fluorescence polarization (FP) assay, binding to Pin1. The settings on record: competition with fluorescein-labeled peptide probe; 12 hours pre-incubation at 4° C.; Kenakin Ki equation; read-out: Ki, μM (FP Assay). In general terms: In fluorescence polarisation assays a small probe gives low polarisation when free and higher when bound to something large.

In assay [5] the target is T1, Pin1. As to the kind of experiment: Cellular target engagement, live cell biotin competition assay in TNBC MDA-MB-231 cells. Type of assay: cell-based. More on the design: endogenous in cells; host or cells: MDA-MB-231. Conditions: TNBC MDA-MB-231 cells, 5 hours treatment; concentration under E7. Here is the method:
TNBC MDA-MB-231 cells were plated in 10 cm plates with 2.5 million cells per plate in 6 mL of media. The day after plating, cells were treated with the indicated concentrations of compound 18 for 5 hours. The cells were washed 2× with 0.9% NaCl (1 mL per 10 cm plate), and collected by scraping with a cell scraper. Cells were lysed in lysis buffer (50 mM Hepes pH 7.5, 150 mM NaCl, 1 mM EDTA, 10% v/v glycerol, 0.5% v/v […], protease inhibitors (Roche)) using 210 μL of cell lysis buffer per 10 cm plate of cells. After clarifying by centrifugation (14,000 rpm for 15 min at 4° C.), 5 μL of each lysate sample was combined with 5 μL of 2× LDS+10% β-mercaptoethanol, boiled for 5 minutes, and set aside for the input loading control (later to be loaded directly in the gel). Then, 200 μL of each lysate was then incubated with 1 μM of compound 2-32 (biotin probe compound) for 1 hour at 4° C. Lysates were then incubated with streptavidin agarose resin (30 μL of 1:1 beads: lysis buffer slurry) (Thermo Scientific™, cat. #20349) for 2 hours at 4° C. Beads were washed 4 times with 500 μL of washing buffer (50 mM Hepes, pH7.5, 10 mM NaCl, 1 mM EDTA, 10% glycerol), then pelleted by centrifugation and dried. The beads were then boiled at 95° C. for 5 minutes in 30 μL of 2× LDS+10% β-mercaptoethanol. Lysates were probed for specified proteins by western blotting using the Bolt system (Life Technologies™).

Entries after “also recorded” stand apart in the source; their conditions may differ. Non-standard residues stand in square brackets, D forms with d. Residues, ends and D or L forms follow the SMILES beside them. *: point of attachment. 2Nal = N[C@@H](Cc1ccc2ccccc2c1)C(=O)O; Cit = NC(=O)NCCC[C@H](N)C(=O)O; Pip = O=C(O)[C@@H]1CCCCN1; ClAc = O=C(CCl)*; X1 = O=C(C1CO1)*

T2 sequence (Q13526 whole entry): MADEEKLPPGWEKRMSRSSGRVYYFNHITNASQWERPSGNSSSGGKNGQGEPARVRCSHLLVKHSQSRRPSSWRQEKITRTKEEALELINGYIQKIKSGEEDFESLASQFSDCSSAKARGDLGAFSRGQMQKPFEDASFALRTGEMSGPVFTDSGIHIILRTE
T1 sequence (Q13526 whole entry): as above
Chain of Pin1 Cys 113 (Q13526 whole entry): as above

`NC(=O)CC[C@H](NC(=O)[C@H](Cc1ccc2ccccc2c1)NC(=O)[C@@H]1CCCCN1C(=O)[C@H](CCC(=O)O)NC(=O)CCl)C(N)=O` [Compound 2b-3, (S)-4-(2-Chloroacetamido)-5-((S)-2-(((S)-1-(((S)-1,5-diamino-1,5-dioxopentan-2-yl)amino)-3-(naphthalen-2-yl)-1-oxopropan-2-yl)carbamoyl)piperidin-1-yl)-5-oxopentanoic acid] (ClAc-E[Pip][2Nal]Q-NH2): the “Covalent? (In tact MS), % labeling” value on Pin1 Cys 113 is recorded as “Yes (81%”. The “X-Ray Crystal Structure?” value at Pin1 [1] was “Yes”.

With `N=C(N)NCCC[C@H](NC(=O)[C@H](Cc1ccc2ccccc2c1)NC(=O)[C@@H]1CCCCN1C(=O)[C@H](CCC(=O)O)NC(=O)CCl)C(N)=O` [Compound 2b-6, (S)-5-((S)-2-(((S)-1-(((S)-1-Amino-5-guanidino-1-oxopentan-2-yl)amino)-3-(naphthalen-2-yl)-1-oxopropan-2-yl)carbamoyl)piperidin-1-yl)-4-(2-chloroacetamido)-5-oxopentanoic acid] (ClAc-E[Pip][2Nal]R-NH2), the “Pin1 covalent labeling time course (FIG. 3A)” value on Pin1 Cys 113 (over the course of 60 minutes) is listed as “rapidly labeled Pin1 Cysl 13”. Further, the “Covalent? (In tact MS), % labeling” value at Pin1 Cys 113 is listed as “Yes (100%”. Moreover, the “X-Ray Crystal Structure?” value on Pin1 [1] is “Yes”. Moreover, the “binding mode in x-ray co-crystal structure (FIG. 4A)” value on Pin1 [1] (1.8 A resolution, crystal soaking) is recorded as “covalently bound to Pin1; also recorded: covalently bound to Cys113 in the PPIase active site”. Moreover, the “Lysate Target Engagement?” value at Pin1 [2] is recorded as “No”. Also, the inhibition constant (Ki) on Pin1 (GST-Pin1) [3] was 0.04 µM.

Regarding `NC(=O)NCCC[C@H](NC(=O)[C@H](Cc1ccc2ccccc2c1)NC(=O)[C@@H]1CCCCN1C(=O)[C@H](CCC(=O)O)NC(=O)CCl)C(N)=O` [Compound 2b-13, (S)-5-((S)-2-(((S)-1-(((S)-1-Amino-1-oxo-5-ureidopentan-2-yl)amino)-3-(naphthalen-2-yl)-1-oxopropan-2-yl)carbamoyl)piperidin-1-yl)-4-(2-chloroacetamido)-5-oxopentanoic acid] (ClAc-E[Pip][2Nal][Cit]-NH2), the “Lysate Target Engagement?” value on Pin1 [2] is given as “Yes-Complete”. Also, the “Lysate Target Engagement? concentration stated for the engagement or pull down” value at Pin1 [2] (read with the E4 line of the same compound (complete, partial, probe pull down)) is reported as “at 10 μM”. Moreover, the Ki on Pin1 (GST-Pin1) [3] was determined as 0.021 µM.

Regarding `NC(=O)NCCC[C@H](NC(=O)[C@H](Cc1ccc2ccccc2c1)NC(=O)[C@@H]1CCCCN1C(=O)[C@H](CCC(=O)O)NC(=O)C1CO1)C(N)=O` (stereo partly drawn) [Compound 3b-1, (4S)-5-((S)-2-(((S)-1-(((S)-1-Amino-1-oxo-5-ureidopentan-2-yl)amino)-3-(naphthalen-2-yl)-1-oxopropan-2-yl)carbamoyl)piperidin-1-yl)-4-(oxirane-2-carboxamido)-5-oxopentanoic acid] (X1-E[Pip][2Nal][Cit]-NH2), the inhibition constant Ki on Pin1 (GST-Pin1) [4] amounted to 1.61 µM. For the same compound, the “Cellular Target Engagement?” value at Pin1 [5] is on record as “No”. Further, the “Covalent? (In tact MS), % labeling” value on Pin1 Cys 113 is reported as “Yes (93%”. Besides, the “Lysate Target Engagement?” value on Pin1 [2] was “No”.
